In patent US20250269072A1, “PROCESSES FOR PREPARING RADIOLABELLED CONJUGATES” (CENTENARY INSTITUTE OF CANCER MEDICINE AND CELL BIOLOGY, priority 2021, published 2025):
“And” between values parts separate entries of the source, which are not always exact repeats. Equal values may be shown once.

Test: Human studies: radiation dosimetry of subjects 1-4 (Olinda/EXM)
Format: in vivo
Description: For subjects 1-4, radiation dosimetry was calculated using Olinda/EXM based on the organ biodistribution discussed above.
Tables 7-10 show the estimate for radiation dosimetry for subjects 1˜4 of 200 MBq of ^68Ga NODAGA GSAO for individual organs and for the whole body in mSv/MBq (EDE cont.=effective dose equivalent contribution, ED Cont.=effective dose contribution). The estimated whole-body dose from the one (1) low dose CT and two (2) ultra-low dose CTs was 9.2 mSv.

[1] = Pancreas, subjects 1-4 = the 7th table-the 10th table
[2] = Red Marrow, subjects 1-4 = the 7th table-the 10th table
[3] = Skin, subjects 1-4 = the 7th table-the 10th table
[4] = Small Intestine, subjects 1-4 = the 7th table-the 10th table
[5] = Spleen, subjects 1-4 = the 7th table-the 10th table
[6] = Stomach Wall, subjects 1-4 = the 7th table-the 10th table
[7] = Testes, subject 1 = the 7th table, subject 3 = the 9th table
[8] = Thymus, subjects 1-4 = the 7th table-the 10th table
[9] = Thyroid, subjects 1-4 = the 7th table-the 10th table
[10] = Total Body, subjects 1-4 = the 7th table-the 10th table
[11] = ULI Wall, subjects 1-4 = the 7th table-the 10th table
[12] = Uterus, subjects 1-4 = the 7th table-the 10th table

O=C(O)CNC(=O)[C@H](CSCC(=O)Nc1ccc([As](O)O)cc1)NC(=O)CC[C@H](NC(=O)CCC1C(=O)[O][68Ga]2[O]C(=O)CN3CCN(CCN1CC3)CC(=O)[O]2)C(=O)O (stereo partly drawn) [^68Ga-NODAGA-GSAO]
Photon dose [1]: 4.90E−03 mSv/MBq and 5.90E−03 mSv/MBq and 4.18E−03 mSv/MBq and 5.04E−03 mSv/MBq
Total dose [1]: 1.69E−02 mSv/MBq and 2.21E−02 mSv/MBq and 1.54E−02 mSv/MBq
Alpha dose [2]: 0.00E+00 mSv/MBq
Beta dose [2]: 5.39E−03 mSv/MBq and 6.61E−03 mSv/MBq and 4.29E−03 mSv/MBq and 5.25E−03 mSv/MBq
ED Cont. [2]: 1.09E−03 mSv/MBq and 1.30E−03 mSv/MBq and 8.70E−04 mSv/MBq and 1.13E−03 mSv/MBq
EDE Cont. [2]: 1.09E−03 mSv/MBq and 1.30E−03 mSv/MBq and 8.70E−04 mSv/MBq and 1.13E−03 mSv/MBq
Photon dose [2]: 3.70E−03 mSv/MBq and 4.24E−03 mSv/MBq and 2.96E−03 mSv/MBq and 4.13E−03 mSv/MBq
Total dose [2]: 9.08E−03 mSv/MBq and 1.08E−02 mSv/MBq and 7.25E−03 mSv/MBq and 9.38E−03 mSv/MBq
Alpha dose [3]: 0.00E+00 mSv/MBq
ED Cont. [3]: 5.17E−05 mSv/MBq and 7.01E−05 mSv/MBq and 3.66E−05 mSv/MBq and 5.79E−05 mSv/MBq
EDE Cont. [3]: 0.00E+00 mSv/MBq
Photon dose [3]: 2.03E−03 mSv/MBq and 2.32E−03 mSv/MBq and 1.63E−03 mSv/MBq and 2.26E−03 mSv/MBq
Total dose [3]: 5.17E−03 mSv/MBq and 7.01E−03 mSv/MBq and 3.66E−03 mSv/MBq and 5.79E−03 mSv/MBq
Alpha dose [4]: 0.00E+00 mSv/MBq
ED Cont. [4]: 7.19E−05 mSv/MBq and 9.14E−05 mSv/MBq and 6.51E−05 mSv/MBq and 4.60E−05 mSv/MBq
EDE Cont. [4]: 0.00E+00 mSv/MBq
Photon dose [4]: 5.21E−03 mSv/MBq and 5.57E−03 mSv/MBq and 4.29E−03 mSv/MBq and 5.67E−03 mSv/MBq
Total dose [4]: 1.44E−02 mSv/MBq and 1.83E−02 mSv/MBq and 1.30E−02 mSv/MBq and 9.20E−03 mSv/MBq
Alpha dose [5]: 0.00E+00 mSv/MBq
Beta dose [5]: 1.27E−02 mSv/MBq and 1.48E−02 mSv/MBq and 1.09E−02 mSv/MBq and 1.18E−02 mSv/MBq
ED Cont. [5]: 8.65E−05 mSv/MBq and 1.01E−04 mSv/MBq and 7.35E−05 mSv/MBq and 8.27E−05 mSv/MBq
Photon dose [5]: 4.57E−03 mSv/MBq and 5.34E−03 mSv/MBq and 3.83E−03 mSv/MBq and 4.70E−03 mSv/MBq
Total dose [5]: 1.73E−02 mSv/MBq and 2.02E−02 mSv/MBq and 1.47E−02 mSv/MBq and 1.65E−02 mSv/MBq
Alpha dose [6]: 0.00E+00 mSv/MBq
EDE Cont. [6]: 0.00E+00 mSv/MBq
Photon dose [6]: 3.93E−03 mSv/MBq and 4.97E−03 mSv/MBq and 3.12E−03 mSv/MBq and 4.01E−03 mSv/MBq
Alpha dose [7]: 0.00E+00 mSv/MBq
Beta dose [7]: 1.37E−02 mSv/MBq and 1.22E−02 mSv/MBq
ED Cont. [7]: 3.65E−03 mSv/MBq and 3.27E−03 mSv/MBq
EDE Cont. [7]: 4.56E−03 mSv/MBq and 4.09E−03 mSv/MBq
Photon dose [7]: 4.58E−03 mSv/MBq and 4.18E−03 mSv/MBq
Total dose [7]: 1.83E−02 mSv/MBq and 1.64E−02 mSv/MBq
Alpha dose [8]: 0.00E+00 mSv/MBq
ED Cont. [8]: 3.06E−05 mSv/MBq and 4.18E−05 mSv/MBq and 2.16E−05 mSv/MBq and 3.38E−05 mSv/MBq
EDE Cont. [8]: 0.00E+00 mSv/MBq
Photon dose [8]: 2.96E−03 mSv/MBq and 3.66E−03 mSv/MBq and 2.30E−03 mSv/MBq and 3.23E−03 mSv/MBq
Total dose [8]: 6.11E−03 mSv/MBq and 8.36E−03 mSv/MBq and 4.32E−03 mSv/MBq and 6.76E−03 mSv/MBq
Alpha dose [9]: 0.00E+00 mSv/MBq
Beta dose [9]: 1.12E−02 mSv/MBq and 1.19E−02 mSv/MBq and 8.46E−03 mSv/MBq and 1.34E−02 mSv/MBq
ED Cont. [9]: 7.05E−04 mSv/MBq and 7.59E−04 mSv/MBq and 5.42E−04 mSv/MBq and 8.18E−04 mSv/MBq
EDE Cont. [9]: 4.23E−04 mSv/MBq and 4.55E−04 mSv/MBq and 3.25E−04 mSv/MBq and 4.91E−04 mSv/MBq
Photon dose [9]: 2.86E−03 mSv/MBq and 3.24E−03 mSv/MBq and 2.38E−03 mSv/MBq and 3.00E−03 mSv/MBq
Total dose [9]: 1.41E−02 mSv/MBq and 1.52E−02 mSv/MBq and 1.08E−02 mSv/MBq and 1.64E−02 mSv/MBq
Alpha dose [10]: 0.00E+00 mSv/MBq
Beta dose [10]: 6.33E−03 mSv/MBq and 7.76E−03 mSv/MBq and 4.94E−03 mSv/MBq and 6.96E−03 mSv/MBq
ED Cont. [10]: 0.00E+00 mSv/MBq
EDE Cont. [10]: 0.00E+00 mSv/MBq
Photon dose [10]: 3.44E−03 mSv/MBq and 3.84E−03 mSv/MBq and 2.77E−03 mSv/MBq and 3.92E−03 mSv/MBq
Total dose [10]: 9.78E−03 mSv/MBq and 1.16E−02 mSv/MBq and 7.71E−03 mSv/MBq and 1.09E−02 mSv/MBq
Alpha dose [11]: 0.00E+00 mSv/MBq
EDE Cont. [11]: 0.00E+00 mSv/MBq
Photon dose [11]: 5.20E−03 mSv/MBq and 6.02E−03 mSv/MBq and 4.00E−03 mSv/MBq and 5.50E−03 mSv/MBq
Alpha dose (Urinary Bladder Wall, subjects 1-4 = the 7th table-the 10th table): 0.00E+00 mSv/MBq
Alpha dose [12]: 0.00E+00 mSv/MBq
Photon dose [12]: 1.06E−02 mSv/MBq and 8.98E−03 mSv/MBq and 8.36E−03 mSv/MBq and 1.51E−02 mSv/MBq
estimated effective whole-body dose (administered activity of 200 MBq): 4.3-6.8 mSv
estimated effective whole-body dose for the protocol (first in human protocol incl. CTs, subjects 1-4): 13.5-15.9 mSv
effective whole-body dose (range over subjects 1-4): 2.16×10^−2 to 3.38×10^−2 mSv/MBq
overall estimated radiation dose (subject 1): 14.5 mSv
overall estimated radiation dose (subject 2): 13.9 mSv
overall estimated radiation dose (subject 3): 13.5 mSv
overall estimated radiation dose (subject 4): 15.9 mSv
Effective Dose (whole body, subjects 1-4 = the 7th table-the 10th table): 2.63E−02 mSv/MBq and 2.35E−02 mSv/MBq and 2.16E−02 mSv/MBq and 3.38E−02 mSv/MBq
